For series [1], the system named is Rattus norvegicus. The settings on record: for LC50 / LD50: acute; for NOAEL: reproduction developmental.
Series [2] deals with Rattus norvegicus. Description: LD40; higher = less toxic. As to conditions: acute; oral; gavage; Wistar.
Another series has as its system Cavia sp. The settings on record: acute; inhalation; FTD Hartley.
For series [3], the system named is Monkey. The settings on record: subchronic; duration: 3 months; inhalation; Cynomolgus.
The test system of series [4] is Mus musculus. The settings on record: inhalation.
The subject of series [5] is Monkey. As to conditions: subchronic; duration: 55 days; oral; diet; M; Squirrel Monkey; neurological.
In series [6] the test system is Rattus norvegicus.
Series [7] has as its system Rattus norvegicus. The source holds these as a separate data set.
Series [8] deals with Rattus norvegicus. The settings on record: chronic, duration: 2 years, oral, diet.
Series [9] deals with Rattus norvegicus. The settings on record: repeat dose other; oral.
The next series concerns Tytonidae. The settings on record: oral.
Another series concerns Oryctolagus sp. The settings on record: reproduction developmental; duration: 22 days; oral; gavage; M/F; New Zealand; neurological.
The next series relates to Canidae. As to conditions: chronic, duration: 1 years, oral, diet, Dog Other, Decreased weight gain in males and neurologic findings in both sexes.
The next series concerns Perdix perdix. The settings on record: oral.
The next series relates to Homo sapiens. As to conditions: clinical; duration: 30 minutes; inhalation; M/F; respiratory.
For a further series, the system named is Sus scrofa. The settings on record: chronic; duration: 105 days; oral; diet; Not specified; Gastrointestinal system: Disturbance.
For series [10], the system named is Mus musculus. As to conditions: subchronic; duration: 13 weeks; inhalation; intermittent; Nasal mucosa: Inflammation.
Series [11] relates to Gallus sp. The settings on record: subchronic; duration: 90 days; oral; F; ataxia, delayed neurotoxicity and weight loss.
The subject of series [12] is Gallus sp. The settings on record: subchronic; duration: 3 months; oral; capsule; Nervous system: Ataxia + Nervous system: Delayed neurotoxicity + Whole body: Decreased weight.
Setting [13] is: chronic, duration: 2 years, oral, diet, M/F, liver lesions.
The mark [14] stands for this setting: chronic, duration: 2 years, oral, diet, F, increased incidence of marked progressive glomerulonephrosis and blood vessel aneurysms in males + Reduced body weight gain in males and ….
[15] abbreviates: subchronic, inhalation, M, nasal lesions of the olfactory mucosa.

Where “and” joins values, the source holds several entries; their conditions need not be identical. Equal values may be shown once.

`CC(C)(C)C(=O)CCc1ccc(Cl)cc1` [1-(4-Chlorophenyl)-4,4-dimethyl-pentan-3-one]: the LC50 in the series with Rattus norvegicus [1] (Inhalation, Wistar) was above 2940 mg/m3. The LD50 in the series with Rattus norvegicus [1] (dermal, occlusive, Wistar) is above 5000 mg/kg; in the series on Rattus norvegicus [1] (oral, gavage, Wistar) it was 4750 mg/kg and > 5000 mg/kg and 4820 mg/kg. The compound also yielded an LD40 in the series on Rattus norvegicus [2] of 3140 mg/kg.
As for `[C-]#[O+]` [Carbon monoxide], the LC50 was 2070 mg/m3 and ≥ 1830 mg/m3 and ≤ 2240 mg/m3 with Cavia sp.; 2070 mg/m3 and ≥ 1830 mg/m3 and ≤ 2240 mg/m3 in the series on Mus musculus [4] (acute, NIH/Nmri Swiss albino). Besides, the LOAEL in the series on Monkey [3] was 115 mg/m3; in the series on Mus musculus [4] (reproduction developmental, duration: 7 days, CD1, generation: F1), 143 mg/m3.
Take `ClC1=C(Cl)[C@]2(Cl)[C@@H]3[C@@H]4C[C@@H]([C@H]5O[C@@H]45)[C@@H]3[C@@]1(Cl)C2(Cl)Cl` [Dieldrin]: the no-observed-adverse-effect level (NOAEL) with Monkey [5] is 0.01 mg/kg-day; in the series on Rattus norvegicus [6] (chronic, duration: 2 years, oral, diet, M/F, Carworth Farms E, hepatic), 0.005 mg/kg-day; in the series on Rattus norvegicus [7] (setting [13]) it was 0.005 mg/kg-day; in the series with Rattus norvegicus [8] (Liver: Lesions), 0.005 mg/kg-day; in the series on Rattus norvegicus [9], 0.02 mg/kg-day; in the series with Tytonidae, 0.077 mg/kg-day. The LOAEL in the series with Rattus norvegicus [7] (setting [13]) amounted to 0.05 mg/kg-day; with Rattus norvegicus [9], 0.2 mg/kg-day.
With `O=S1OCC2C(CO1)C1(Cl)C(Cl)=C(Cl)C2(Cl)C1(Cl)Cl` (centres undefined) [Endosulfan], the NOAEL in the series with Oryctolagus sp. came out at 0.7 mg/kg-day; in the series on Rattus norvegicus [6] (chronic, duration: 22 weeks, oral, diet, M, Wistar, immunological) it was 0.45 mg/kg-day; with Canidae (F) it was 0.57 mg/kg-day; in the series with Rattus norvegicus [7] (setting [14]) it was 0.7 mg/kg-day; in the series on Rattus norvegicus [7] (chronic, duration: 2 years, oral, diet, M, reduced body weight gain (males) and females increased incidence of marked progressive glomerulonephrosis and blood vessel aneurysms (males)), 0.6 mg/kg-day; in the series on Rattus norvegicus [8] (Blood vessel: Aneurysms + Kidney: Glomerulonephrosis + Whole body: Decreased weight gain) it was 1.17 mg/kg-day. Further, the values for the no observed adverse effect level (NOAEL) with Perdix perdix and in the series with Rattus norvegicus [9] were 10 mg/kg-day and 0.15 mg/kg-day, respectively. Further, the LOAEL in the series on Canidae (F) is 1.9 mg/kg-day; with Canidae (M) it was 2.1 mg/kg-day; in the series with Rattus norvegicus [7] (setting [14]), 3.8 mg/kg-day; in the series with Rattus norvegicus [7] (chronic, duration: 2 years, oral, diet, M, increased incidence of marked progressive glomerulonephrosis and blood vessel aneurysms in males + Reduced body weight gain in males and …), 2.9 mg/kg-day.
As to `S` [Hydrogen sulfide], the LOAEL in the series with Homo sapiens worked out at 2.79 mg/m3; with Rattus norvegicus [7] (setting [15]), 41.7 mg/m3. In addition, the NOAEL in the series with Rattus norvegicus [6] (subchronic, duration: 10 weeks, inhalation, M, Sprague-Dawley, respiratory) is 13.9 mg/m3; in the series on Rattus norvegicus [1] (duration: 18 days, inhalation, F, Sprague-Dawley) it was 112 mg/m3; in the series on Rattus norvegicus [1] (inhalation, Sprague-Dawley, generation: F0), 112 mg/m3; in the series with Rattus norvegicus [1] (inhalation, Sprague-Dawley, generation: F1), 112 mg/m3; in the series with Rattus norvegicus [7] (setting [15]), 13.9 mg/m3; in the series on Sus scrofa, 3.1 mg/kg-day. The NOAEL in the series with Mus musculus [10] was found to be 42 mg/m3. In the series with Rattus norvegicus [1] (inhalation, Sprague-Dawley), the LC50 is 619 mg/m3 and ≥ 580 mg/m3 and ≤ 659 mg/m3.
Turning to `CCCCSP(=O)(SCCCC)SCCCC` [Tribufos], the no-observed-adverse-effect level (NOAEL) in the series with Rattus norvegicus [6] (reproduction developmental, duration: 364 days, oral, diet, M, Sprague-Dawley, neurological) was determined as 0.28 mg/kg-day; in the series on Rattus norvegicus [6] (subchronic, duration: 13 weeks, inhalation, head only, M/F, Wistar, neurological), 2.43 mg/m3. Moreover, the LC50 in the series on Rattus norvegicus [1] (Inhalation, Sprague-Dawley) is ≥ 2460 mg/m3 and ≤ 4650 mg/m3. The compound further displayed an LOAEL with Gallus sp. [11] of 0.5 mg/kg-day. In addition, the NOEL in the series with Gallus sp. [11] and in the series with Gallus sp. [12] was 0.1 mg/kg-day each time.

Source of the values: EPA's ToxValDB 9.5.
